In brackets after ≈: the same amount, converted by molar mass.
Key:
[1] = test system: Staphylococcus epidermidis EPI2; type: cell-based; conditions: agar dilution; 2, 5, 17, 22 median of three tests; paired values two experiments
[2] = test system: Streptococcus pneumoniae Group D X66; type: cell-based; conditions: agar dilution; 2, 5, 17, 22 median of three tests; paired values two experiments
[3] = test system: Streptococcus pyogenes C203; type: cell-based; conditions: agar dilution; 2, 5, 17, 22 median of three tests; paired values two experiments
[4] = test system: Staphylococcus epidermidis EPI1; type: cell-based; conditions: agar dilution; 2, 5, 17, 22 median of three tests; paired values two experiments
[5] = test system: Streptococcus pneumoniae Park I; type: cell-based; conditions: agar dilution; 2, 5, 17, 22 median of three tests; paired values two experiments
[6] = test system: Micrococcus luteus ATCC 9341; test: agar-plate disc-diffusion test; type: cell-based; conditions: suspended in water at 1 mg/ml; 7 mm disc; 24-48 hours at 25-37° C.
[7] = test system: Staphylococcus aureus V41; type: cell-based; conditions: penicillin-resistant strain; agar dilution; 2, 5, 17, 22 median of three tests; paired values two experiments
[8] = test system: Staphylococcus aureus ATCC 6738P; test: agar-plate disc-diffusion test; type: cell-based; conditions: suspended in water at 1 mg/ml; 7 mm disc; 24-48 hours at 25-37° C.
[9] = test system: Staphylococcus aureus X1.1; type: cell-based; conditions: agar dilution; 2, 5, 17, 22 median of three tests; paired values two experiments
Staphylococcus aureus = test: in vivo activity against experimental bacterial infection (ED50); conditions: mice; two doses subcutaneously; dose protecting fifty percent of test animals
Streptococcus pyogenes = test: as above; conditions: mice, dose protecting fifty percent of test animals; for ED50 Streptococcus pyogenes Oral: two doses orally; for ED50 Streptococcus pyogenes Subcutaneous: two doses subcutaneously
Streptococcus Group 9960 = type: cell-based, Streptococcus pneumoniae; conditions: agar dilution; 2, 5, 17, 22 median of three tests; paired values two experiments
[10] = test system: Staphylococcus aureus X400; type: cell-based; conditions: methicillin-resistant strain; agar dilution; 2, 5, 17, 22 median of three tests; paired values two experiments
[11] = test system: Bacillus subtilis ATCC 6633; test: agar-plate disc-diffusion test; conditions: 7 mm disc, 24-48 hours at 25-37° C.; for Size of Zone of Inhibition (mm) B. subtilis ATCC 6633, grown on minimal nutrient agar: 1 mg/ml; for Size of Zone of Inhibition (mm) Bacillus subtilis ATCC 6633: suspended in water at 1 mg/ml
Protocol: ^a Compounds were suspended in water at a concentration of 1 mg/ml; a
7 mm disc was dipped into the suspension and then placed on the agar
surface; incubation: 24-48 hours at 25-37° C.
^b Grown on minimal nutrient agar

toxicity test (LD50) = conditions: mouse, in vivo, iv, mice; administered intravenously

CCCCCCCCCCCCCCC(=O)N[C@@H](Cc1c[nH]c2ccccc12)C(=O)N[C@@H](CC(N)=O)C(=O)N[C@@H](CC(=O)O)C(=O)N[C@@H]1C(=O)NCC(=O)N[C@@H](CCCN)C(=O)N[C@@H](CC(=O)O)C(=O)N[C@H](C)C(=O)N[C@@H](CC(=O)O)C(=O)NCC(=O)N[C@H](CO)C(=O)N[C@@H]([C@H](C)CC(=O)O)C(=O)N[C@@H](CC(=O)c2ccccc2N)C(=O)O[C@@H]1C [Compound 9]
MIC Staphylococcus epidermidis EPI2 [1]: 4 µg/mL (≈ 2.37 µM) | MIC Streptococcus pneumoniae Group D X66 [2]: 2 µg/mL (≈ 1.18 µM) | MIC Streptococcus pyogenes C203 [3]: 1 µg/mL (≈ 0.591 µM) | MIC Staphylococcus epidermidis EPI1 [4]: 2 µg/mL (≈ 1.18 µM) | MIC Streptococcus pneumoniae Park I [5]: 0.06 µg/mL (≈ 0.0355 µM) | Size of Zone of Inhibition (mm) Micrococcus luteus ATCC 9341 [6]: 19 mm | MIC Staphylococcus aureus V41 [7]: 1 µg/mL (≈ 0.591 µM) | Size of Zone of Inhibition (mm) Staphylococcus aureus ATCC 6738P [8]: 20 mm | MIC Staphylococcus aureus X1.1 [9]: 1 µg/mL (≈ 0.591 µM) | ED50 Staphylococcus aureus Subcutaneous (Staphylococcus aureus): 8.3 mg/kg × 2 | ED50 Streptococcus pyogenes Oral (Streptococcus pyogenes): > 200 mg/kg × 2 | MIC Streptococcus pneumoniae Group 9960 (Streptococcus Group 9960): 0.25 µg/mL (≈ 0.148 µM) | MIC Staphylococcus aureus X400 [10]: 2 µg/mL (≈ 1.18 µM) | Size of Zone of Inhibition (mm) B. subtilis ATCC 6633, grown on minimal nutrient agar [11]: 24 mm | Size of Zone of Inhibition (mm) Bacillus subtilis ATCC 6633 [11]: 19 mm | LD50 (toxicity test (LD50)): 56.2 mg/kg

CCCCCCCCCCCCCCCC(=O)N[C@@H](Cc1c[nH]c2ccccc12)C(=O)N[C@@H](CC(N)=O)C(=O)N[C@@H](CC(=O)O)C(=O)N[C@@H]1C(=O)NCC(=O)N[C@@H](CCCN)C(=O)N[C@@H](CC(=O)O)C(=O)N[C@H](C)C(=O)N[C@@H](CC(=O)O)C(=O)NCC(=O)N[C@H](CO)C(=O)N[C@@H]([C@H](C)CC(=O)O)C(=O)N[C@@H](CC(=O)c2ccccc2N)C(=O)O[C@@H]1C [Compound 10]
MIC Staphylococcus epidermidis EPI2 [1]: 2 µg/mL (≈ 1.17 µM) | MIC Streptococcus pneumoniae Group D X66 [2]: 2 µg/mL (≈ 1.17 µM) | MIC Streptococcus pyogenes C203 [3]: 1 µg/mL (≈ 0.587 µM) | MIC Staphylococcus epidermidis EPI1 [4]: 2 µg/mL (≈ 1.17 µM) | MIC Streptococcus pneumoniae Park I [5]: 0.06 µg/mL (≈ 0.0352 µM) | Size of Zone of Inhibition (mm) Micrococcus luteus ATCC 9341 [6]: 17 mm | MIC Staphylococcus aureus V41 [7]: 1 µg/mL (≈ 0.587 µM) | Size of Zone of Inhibition (mm) Staphylococcus aureus ATCC 6738P [8]: 19 mm | MIC Staphylococcus aureus X1.1 [9]: 1 µg/mL (≈ 0.587 µM) | ED50 Staphylococcus aureus Subcutaneous (Staphylococcus aureus): > 1.1 mg/kg × 2 | ED50 Streptococcus pyogenes Oral (Streptococcus pyogenes): > 200 mg/kg × 2 | ED50 Streptococcus pyogenes Subcutaneous (Streptococcus pyogenes): 0.18 mg/kg × 2 | MIC Streptococcus pneumoniae Group 9960 (Streptococcus Group 9960): 0.25 µg/mL (≈ 0.147 µM) | MIC Staphylococcus aureus X400 [10]: 2 µg/mL (≈ 1.17 µM) | Size of Zone of Inhibition (mm) B. subtilis ATCC 6633, grown on minimal nutrient agar [11]: 23 mm | Size of Zone of Inhibition (mm) Bacillus subtilis ATCC 6633 [11]: 17 mm | LD50 (toxicity test (LD50)): 50 mg/kg

C=CCCCCCCCCC(=O)N[C@@H](Cc1c[nH]c2ccccc12)C(=O)N[C@@H](CC(N)=O)C(=O)N[C@@H](CC(=O)O)C(=O)N[C@@H]1C(=O)NCC(=O)N[C@@H](CCCN)C(=O)N[C@@H](CC(=O)O)C(=O)N[C@H](C)C(=O)N[C@@H](CC(=O)O)C(=O)NCC(=O)N[C@H](CO)C(=O)N[C@@H]([C@H](C)CC(=O)O)C(=O)N[C@@H](CC(=O)c2ccccc2N)C(=O)O[C@@H]1C [Compound 11]
MIC Staphylococcus epidermidis EPI2 [1]: 1 µg/mL (≈ 0.612 µM) | MIC Streptococcus pneumoniae Group D X66 [2]: 1 µg/mL (≈ 0.612 µM) | MIC Streptococcus pyogenes C203 [3]: 0.5 µg/mL (≈ 0.306 µM) | MIC Staphylococcus epidermidis EPI1 [4]: 1 µg/mL (≈ 0.612 µM) | MIC Streptococcus pneumoniae Park I [5]: 0.25 µg/mL (≈ 0.153 µM) | Size of Zone of Inhibition (mm) Micrococcus luteus ATCC 9341 [6]: 20 mm | MIC Staphylococcus aureus V41 [7]: 0.5 µg/mL (≈ 0.306 µM) | Size of Zone of Inhibition (mm) Staphylococcus aureus ATCC 6738P [8]: 21 mm | MIC Staphylococcus aureus X1.1 [9]: 0.5 µg/mL (≈ 0.306 µM) | ED50 Staphylococcus aureus Subcutaneous (Staphylococcus aureus): 0.93 mg/kg × 2 | ED50 Streptococcus pyogenes Oral (Streptococcus pyogenes): 138 mg/kg × 2 | ED50 Streptococcus pyogenes Subcutaneous (Streptococcus pyogenes): 0.068 mg/kg × 2 | MIC Streptococcus pneumoniae Group 9960 (Streptococcus Group 9960): 0.5 µg/mL (≈ 0.306 µM) | MIC Staphylococcus aureus X400 [10]: 0.5 µg/mL (≈ 0.306 µM) | Size of Zone of Inhibition (mm) B. subtilis ATCC 6633, grown on minimal nutrient agar [11]: 25 mm | Size of Zone of Inhibition (mm) Bacillus subtilis ATCC 6633 [11]: 17 mm | LD50 (toxicity test (LD50)): ≥ 500 mg/kg

CCCCC=CCCCCCCCC(=O)N[C@@H](Cc1c[nH]c2ccccc12)C(=O)N[C@@H](CC(N)=O)C(=O)N[C@@H](CC(=O)O)C(=O)N[C@@H]1C(=O)NCC(=O)N[C@@H](CCCN)C(=O)N[C@@H](CC(=O)O)C(=O)N[C@H](C)C(=O)N[C@@H](CC(=O)O)C(=O)NCC(=O)N[C@H](CO)C(=O)N[C@@H]([C@H](C)CC(=O)O)C(=O)N[C@@H](CC(=O)c2ccccc2N)C(=O)O[C@@H]1C [Compound 12]
MIC Staphylococcus epidermidis EPI2 [1]: 2 µg/mL (≈ 1.19 µM) | MIC Streptococcus pneumoniae Group D X66 [2]: 2 µg/mL (≈ 1.19 µM) | MIC Streptococcus pyogenes C203 [3]: 0.5 µg/mL (≈ 0.299 µM) | MIC Staphylococcus epidermidis EPI1 [4]: 2 µg/mL (≈ 1.19 µM) | MIC Streptococcus pneumoniae Park I [5]: 0.5 µg/mL (≈ 0.299 µM) | Size of Zone of Inhibition (mm) Micrococcus luteus ATCC 9341 [6]: 20 mm | MIC Staphylococcus aureus V41 [7]: 1 µg/mL (≈ 0.597 µM) | Size of Zone of Inhibition (mm) Staphylococcus aureus ATCC 6738P [8]: 22 mm | MIC Staphylococcus aureus X1.1 [9]: 1 µg/mL (≈ 0.597 µM) | ED50 Staphylococcus aureus Subcutaneous (Staphylococcus aureus): 3.28 mg/kg × 2 | ED50 Streptococcus pyogenes Oral (Streptococcus pyogenes): 75 mg/kg × 2 | ED50 Streptococcus pyogenes Subcutaneous (Streptococcus pyogenes): 0.134 mg/kg × 2 | MIC Streptococcus pneumoniae Group 9960 (Streptococcus Group 9960): 1 µg/mL (≈ 0.597 µM) | MIC Staphylococcus aureus X400 [10]: 2 µg/mL (≈ 1.19 µM) | Size of Zone of Inhibition (mm) B. subtilis ATCC 6633, grown on minimal nutrient agar [11]: 30 mm | Size of Zone of Inhibition (mm) Bacillus subtilis ATCC 6633 [11]: 19 mm | LD50 (toxicity test (LD50)): 450 mg/kg

CCCCCCCCCCC(=O)NCCC[C@@H]1NC(=O)CNC(=O)[C@@H](NC(=O)[C@H](CC(=O)O)NC(=O)[C@H](CC(N)=O)NC(=O)[C@H](Cc2c[nH]c3ccccc23)NC(=O)CCCCCCCCCC)[C@@H](C)OC(=O)[C@H](CC(=O)c2ccccc2N)NC(=O)[C@H]([C@H](C)CC(=O)O)NC(=O)[C@@H](CO)NC(=O)CNC(=O)[C@H](CC(=O)O)NC(=O)[C@@H](C)NC(=O)[C@H](CC(=O)O)NC1=O [Compound 17]
MIC Staphylococcus epidermidis EPI2 [1]: 8 µg/mL (≈ 4.44 µM) | MIC Streptococcus pneumoniae Group D X66 [2]: 8 µg/mL (≈ 4.44 µM) | MIC Streptococcus pyogenes C203 [3]: 0.25 µg/mL (≈ 0.139 µM) | MIC Staphylococcus epidermidis EPI1 [4]: 8 µg/mL (≈ 4.44 µM) | MIC Streptococcus pneumoniae Park I [5]: 0.125 µg/mL (≈ 0.0693 µM) | Size of Zone of Inhibition (mm) Micrococcus luteus ATCC 9341 [6]: 14 mm | MIC Staphylococcus aureus V41 [7]: 4 µg/mL (≈ 2.22 µM) | Size of Zone of Inhibition (mm) Staphylococcus aureus ATCC 6738P [8]: 17 mm | MIC Staphylococcus aureus X1.1 [9]: 1 µg/mL (≈ 0.555 µM) | ED50 Staphylococcus aureus Subcutaneous (Staphylococcus aureus): > 35 mg/kg × 2 | ED50 Streptococcus pyogenes Oral (Streptococcus pyogenes): > 200 mg/kg × 2 | ED50 Streptococcus pyogenes Subcutaneous (Streptococcus pyogenes): 2.85 mg/kg × 2 | MIC Streptococcus pneumoniae Group 9960 (Streptococcus Group 9960): 8 µg/mL (≈ 4.44 µM) | MIC Staphylococcus aureus X400 [10]: 4 µg/mL (≈ 2.22 µM) | Size of Zone of Inhibition (mm) B. subtilis ATCC 6633, grown on minimal nutrient agar [11]: 20 mm | Size of Zone of Inhibition (mm) Bacillus subtilis ATCC 6633 [11]: 13 mm | LD50 (toxicity test (LD50)): 94 mg/kg

From patent publication US4537717A
